These results are taken from patent publication US20230346718A1, “METHOD OF TREATING, AMELIORATING AND/OR […]” (YALE UNIVERSITY, priority 2022, published 2023).

The nature of data set [1]: Water solubility.
Data set [2] relates to healthy controls (HC) and MDD participants. Put plainly: Psychedelic effects, 23-item Psychedelic Effects Visual Analog Scale. Conditions: for Peak change in VAS psychedelic composite score: mean (SD). The format is in vivo, human. How it is done:
(§1) Blood pressure was measured at baseline and 5, 10, 15, 20, 30, 45, 60, and 120 minutes after drug administration. Heart rate and pulse oximetry were measured continuously. Subjective drug effects were measured 60 min before, as well as 30 and 120 min after drug administration.
Both the VAS Psychedelic effects, and PSI were measured before dose administration, shortly after resolution of effects, and again near time of discharge. Subjects were instructed to retroactively rate the effects during the peak effects, given that they might not be able to accurately assess and report effects while immersed in the peak effects.

The test system is the same in data set [3]. In words: In session VAS anxiety and depression. The format is in vivo, human. Conditions: for Peak change in VAS depression: MDD participants only; for Peak change in VAS depression / Peak change in VAS anxiety scale: mean (SD); for Peak change in VAS anxiety scale: all participants. How it is done:
(§2) Both the VAS Psychedelic effects, and PSI were measured before dose administration, shortly after resolution of effects, and again near time of discharge. Subjects were instructed to retroactively rate the effects during the peak effects, given that they might not be able to accurately assess and report effects while immersed in the peak effects. […] In addition to day-after dosing follow up, subjects were contacted 1, 2, and 12 weeks after completion of the last dosing session to follow up on safety and wellbeing.

In data set [4] the test system is healthy volunteers. Conditions: literature, cited from earlier work.
For data set [5], the system named is healthy controls (HC) and MDD participants. In words: Adverse events of the dosing sessions. The format is in vivo, human. The source says:
Given the intensity and brevity of DMT effects, participants were allowed a mostly uninterrupted experience with psychiatrists utilizing a non-directive and supportive approach. Participants were asked how they were feeling at the same time points as the physiological recordings; no psychotherapy was provided. Rescue medications for psychological distress (lorazepam and risperidone) and hypertension (labetalol) were available. Prior to discharge, a field sobriety test and mini-mental status examination were conducted to confirm return to baseline.

Data set [6] has the same test system. In words: Cardiovascular safety: blood pressure and heart rate after intravenous DMT. The format is in vivo, human. As to the method: as §1
Data set [7] has the same test system. Put plainly: Psychotomimetic States Inventory (PSI). The format is in vivo, human. As to the method: as §2
Data set [8] addresses serotonin 5-HT2A receptors (Homo sapiens, UniProt P28223). The settings on record: literature; cited from earlier work.
In data set [9] the test system is healthy controls (HC) and MDD participants. Put plainly: Overall tolerability of test day, visual analog scale. Conditions: for overall tolerability (0=intolerable to 100=well-tolerated): mean (SD).
A short description of data set [10]: Serum DMT levels after intravenous DMT hemifumarate. The format is in vivo, human. Conditions: IV 0.1 and 0.3 mg/kg; 30 and 60 min after administration. As to the method: FIGS. 19A-19B depict serum DMT levels in healthy control (FIG. 19A) and depression subjects (FIG. 19B) with intravenous administration of DMT hemifumarate, in accordance with some embodiments. Y-axis: serum DMT levels (ng/dl); X-axis: 60 min before DMT administration; and 30 and 60 min after DMT administration. […] Solid line (0.1 mg/kg) and dotted line (0.3 mg/kg).
Referring to FIGS. 19A-19B, the present study further reports for the first-time dose-related serum DMT levels in MDD subjects who received 0.1 and […] of IV DMT. The findings in healthy controls are mostly consistent with other studies and PK models (Callaway et al., J Ethnopharmacol. 1999 June; 65(3):243-56; Gallimore and Strassman, Front. Pharmacol., 14 Jul. 2016). […] Given the increased rigor of the assay for DMT utilized in this study, it is unlikely that the variability observed in MDD subjects is spurious. It may be important to note that while DMT's acute effects had mostly resolved by +30 min time point, it is conceivable that peripheral concentration may differ from the central site of action.

For data set [11], the system named is healthy controls (HC) and MDD participants. Put plainly: Drug desirability / reinforcement and abuse liability measures. The format is in vivo, human. Conditions: for monetized value of drug effects (scale from 0-100 dollars): mean (SD). How it is done: VAS measures of tolerability, willingness to pay for the experience, and likelihood to use DMT were analyzed similarly. […] HAM-D for each dose was compared to baseline using paired t-tests. […] For 23-item VAS psychedelic effects, multiple comparison correction was performed using false discovery rate (FDR) correction for all measures in order to increase statistical power and minimize […] errors (Benjamini and Hochberg, Journal of the Royal Statistical Society. Series B (Methodological) Vol. 57, No. 1 (1995), pp. 289-300). For PSI effects, Bonferroni correction was utilized.

Entries after “also recorded” stand apart in the source; their conditions may differ.

serotonin 5-HT2A receptors, sequence (P28223 whole entry): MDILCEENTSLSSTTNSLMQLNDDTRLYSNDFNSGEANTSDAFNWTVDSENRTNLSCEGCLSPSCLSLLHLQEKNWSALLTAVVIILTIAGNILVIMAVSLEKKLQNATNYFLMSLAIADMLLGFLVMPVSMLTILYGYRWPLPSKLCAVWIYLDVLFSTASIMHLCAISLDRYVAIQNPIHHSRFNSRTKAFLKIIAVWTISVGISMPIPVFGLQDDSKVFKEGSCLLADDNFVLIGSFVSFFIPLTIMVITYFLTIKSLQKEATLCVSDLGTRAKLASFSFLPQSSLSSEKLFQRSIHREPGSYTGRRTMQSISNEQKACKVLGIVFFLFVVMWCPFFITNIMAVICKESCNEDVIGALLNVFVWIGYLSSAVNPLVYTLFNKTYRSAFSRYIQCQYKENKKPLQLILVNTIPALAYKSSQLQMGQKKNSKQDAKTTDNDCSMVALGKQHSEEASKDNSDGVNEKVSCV

As for `CN(C)CCc1c[nH]c2ccccc12` [DMT hemifumarate, N,N-dimethyltryptamine hemifumarate], the “water solubility (in words)” value in data set [1] is “water-soluble”.

For `CN(C)CCc1c[nH]c2ccccc12` [DMT, N,N-dimethyltryptamine], the “Peak change in VAS psychedelic composite score” value was 13.16 (SD 11.91) in data set [2] (0.1 mg/kg session) and 55.83 (SD 23.89) in data set [2] (0.3 mg/kg dose). Further, the “Hedge's g, VAS psychedelic composite score dose difference” value in data set [2] (0.3 vs 0.1 mg/kg) was determined as 2.2. The “Peak change in VAS psychedelic composite score, difference between doses” value in data set [2] (95% CI 33.30 to 52.03, p<0.0001) stood at 42.67. Moreover, the “number of the 23 VAS psychedelic items with significant dose-related differences” value in [2] (FDR correction, q=0.05) amounted to 16. In addition, in data set [2] (IV), the “duration of acute effects / resolution after injection” value lay within 20 to 30 min. Further, in [2] (IV push), the “time by which acute psychedelic effects completely subsided” value was at most 30 min. Besides, the “time of peak of acute psychedelic effects after dosing” value in data set [2] (IV push) fell in the range of 5 to 10 min. Moreover, in data set [3] (95% CI −14.30 to 68.53, p=0.26), the “Peak change in VAS anxiety, difference between doses” value came out at 27.11. In addition, the “Peak change in VAS depression, difference between doses” value in data set [3] (95% CI −41.47 to 57.47, p=0.92) amounted to 8.00. Further, the “Peak change in VAS depression” value is 6.83 (SD 28.94) in data set [3] (0.1 mg/kg session) and 14.83 (SD 37.79) in [3] (0.3 mg/kg session). For the same molecule, the results for the “Peak change in VAS anxiety scale” value in data set [3] (0.1 mg/kg session) and in data set [3] (0.3 mg/kg session) were 2.56 (SD 31.8) and 29.67 (SD 39.96), respectively. The “tolerability in healthy controls (in words)” value in data set [4] (doses ranging from 0.05-0.4 mg/kg) is on record as “well-tolerated”. Also, in data set [4] (healthy volunteers), the “time to emergence of effects after intravenous administration” value was at most 2 min. In data set [4] (intravenous, healthy volunteers), the “dose above which psychedelic effects emerge” value is “higher than 0.2 mg/kg”. Besides, the “time to full resolution of effects” value in data set [4] (intravenous) is listed as “about 30 minutes”. Besides, in data set [5] (0.3 mg/kg IV, measured continuously), the “oxygen saturation during the serious adverse event” value was found to be 100%. In addition, the “severity of adverse events (in words)” value in data set [5] (0.1 and 0.3 mg/kg IV) was “mostly mild”. For the same molecule, in [5] (all dosing sessions), the “clinically relevant psychotic symptoms” value is on record as “None of the participants”. For the same molecule, in data set [5] (asymptomatic bradycardia and hypotension in a MDD participant after 0.3 mg/kg), the “number of serious adverse events” value was “one”. For the same molecule, the “symptoms in one healthy subject with anticipatory anxiety” value in data set [5] (following 0.1 mg/kg, symptoms lasted 10 minutes) is “lightheadedness, and pallor”. Moreover, the “heart rate in the serious adverse event” value in [5] (person, 5 minutes after 0.3 mg/kg IV, dropped from 54) turned out to be 42 beats per minute. The “blood pressure in the serious adverse event” value in data set [5] (person, 5 minutes after 0.3 mg/kg IV, dropped from 108/60) was 71/42. Besides, the “effect on systolic and diastolic blood pressure, and heart rate” value in [6] (0.1 and 0.3 mg/kg IV, no significant dose or dose-time effects) is “increased”. Further, the “time point with significant increases in heart rate relative to baseline” value in data set [6] (post-hoc analyses) is on record as “+5 minute”. The “Mean peak change in Psychotomimetic States Inventory (PSI) scale total score” value is listed as 7.33 (SD 7.62) in data set [7] (0.1 mg/kg session, mean (SD)) and 31.67 (16.57) in data set [7] (0.3 mg/kg session). In data set [7] (0.3 vs 0.1 mg/kg), the “Hedge's g, PSI total score dose difference” value is 1.89. Moreover, the “PSI total score peak change, difference between doses” value in data set [7] (95% CI 12.74 to 35.94, p=0.001) is 24.33. For the same molecule, the “activity at serotonin 5-HT2A receptors (in words)” value in data set [8] is reported as “agonist activity”. Further, the results for the “overall tolerability (0=intolerable to 100=well-tolerated)” value in data set [9] (0.1 mg/kg IV dose session) and in data set [9] (0.3 mg/kg IV dose session) were 89.80 (SD 12.95) and 71.11 (SD 24.52), respectively. In data set [9] (0.3 vs 0.1 mg/kg, 95% CI −32.81 to −2.75, p=0.026), the “overall tolerability, difference between dose sessions” value is given as −17.78. The “tolerability (in words)” value in data set [9] (IV, HC and MDD participants) is “tolerated by both HC (n=3) and MDD participants (n=7); also recorded: well tolerated by both MDD patients and HC individuals”. Besides, the “water solubility (in words)” value in [1] was “not water soluble”. The “serum DMT levels in MDD subjects compared with healthy controls (in words)” value in data set [10] is reported as “can have higher serum DMT levels; also recorded: greater variability”. Further, the “monetized value of drug effects (scale from 0-100 dollars)” value is recorded as 25.56 (SD 29.07) dollars in data set [11] (0.1 mg/kg session) and 24.78 (SD 33.36) dollars in data set [11] (0.3 mg/kg session). Besides, the “willingness to use DMT, difference between doses” value in data set [11] (95% CI −16.74 to 13.62, p=0.90) is −1.56. Also, in [11] (95% CI −32.38 to 33.94, p=0.89), the “monetized value of drug effects, difference between doses” value was −0.78. Further, the “abuse potential (in words)” value in data set [11] (intravenous) is “low abuse potential”.
